Data on 15 compounds can be found in patent publication US9938240B2, “Fluorinated derivatives of 3-hydroxypyridin-4-ones” (Apotex Technologies Inc., priority 2009, dated 2018).

The subject of data set [1] is SH-SY5Y human neuroblastoma cells. As to conditions: for CC2 (cytotoxic concentration): H2O2-treated cells, viability below 80%; for CC1 (cytotoxic concentration): absence of H2O2, viability below 80%. The source says: Hydrogen peroxide (H2O2) is a major ROS (reactive oxidative species), which causes oxidative stress, and can induce apoptosis in many different cell types. One of the CNS drug design strategies is to use compounds with antioxidant properties as a possible treatment of both acute and chronic neurodegenerative diseases (Kang et al. Bioorganic & Medicinal Chemistry Letters, 2004, 14, 2261-2264). This involves testing the compounds of this invention for their protective effect against oxidative stress-induced cell death in SH-SY5Y human neuroblastoma cells. SH-SY5Y human neuroblastoma cells were cultured in DMEM (ATCC)/F12 (Cellgro) with 10% FBS. The cells were plated at 30,000 cells/cm^2 and grown for 1 day in the regular culture media prior to compound addition. Cells were routinely treated with the test compound, at a pre-determined range of concentrations, in the presence or absence of 50 μM hydrogen peroxide in a basal medium containing no FBS for 16-22 h. Cell viability was then measured using the routine MTT method (Mosmann, T., Rapid Colorimetric Assay for Cellular Growth and Survival: Application to Proliferation and Cytotoxicity Assays”. J. Immunol. Meth. 1983, 65, 55-63).
For data analysis, cell viability relative to control not treated with either H2O2 or the test compound, was plotted against the compound concentration. […] Cytotoxicity of the test compound was assessed in the absence of hydrogen peroxide.

For data set [2], the system named is human neuroblastoma MC-65 cells. The experiment in a line: cells. To be noted: for EC100 / minimal effective concentration: Homo sapiens, MC65, 48 h; for EC100: read-out: EC100 (maximum effective concentration); for minimal effective concentration: read-out: TH (threshold protective concentration); for CC2 (cytotoxic concentration): MC-65, cultured without tetracycline; for CC2 (cytotoxic concentration) / CC1 (cytotoxic concentration): viability below 80%; for CC1 (cytotoxic concentration): MC-65, presence of TET. The method, then:
In this assay, human neuroblastoma cells (MC-65 cells) are genetically engineered to conditionally express amyloid β peptide (Aβ). The Aβ production is suppressed by tetracycline (TET+) presence in culture medium, and its production is activated when TET is withdrawn (TET−). The activation of Aβ production results in cell death “MC-65 suicide”.
Protective effect of compounds against edogenously produced amyloid beta (Aβ) was assessed in human neuroblastoma MC-65 cells. MC-65 cells have been stably transformed to conditionally express high levels of a partial amyloid precursor (AP) fusion protein (Bryce Sopher et al., Brain Res Mol Brain Res. 1994, 207-17.). This protein is further proteolitically processed in the cells to form a set of AP-derived Aβ peptides. […] Activity of the promoter is tightly regulated by the presence of the antibiotic tetracycline (TET) in the culture medium. In the presence of TET (TET+), the promoter is in the basal state and no amyloid beta peptide is synthesized. In the absence of TET (TET−) the promoter is in induced state, resulting in the accumulation of Aβ peptides in the cells, degenerative changes in cell morphology and decreased survival.
Transfected human neuroblastoma cells (MC-65) were cultured in DMEM (ATCC) supplemented with non-essential amino acids and 10% FBS (VWR) in the presence of TET (1 μg/mL). For the experiment, the cells were plated at 35,000 cells/cm^2 and grown for 1 day in the regular culture media prior to compound addition. On the day of the assay, culture supernatant was removed from the wells and cells were thoroughly washed once with the compound incubation matrix containing no FBS and no TET. MC-65 cells were treated with a test compound at pre-determined range of concentrations in a basal medium containing no FBS and in the absence or presence of 1 μg/mL TET for approximately 48 h. Cell viability was then measured using the MTT method.
For data analysis, cell viabilities relative to the control not treated with a test compound and maintained in the presence of TET were plotted against the compound concentration. […] Cytotoxicity of the test compound was assessed in the cells maintained in the presence of TET.

As to `C#CCN(C)C(c1c(O)c(=O)ccn1C)C(F)(F)F` (centres unmarked) [Apo7057, 3-hydroxy-1-methyl-2-{2,2,2-trifluoro-1-[methyl(prop-2-yn-1-yl)amino]ethyl}pyridin-4(1H)-one], in data set [1], the “CC2 (cytotoxic concentration)” value came out at 80 µM and the “CC1 (cytotoxic concentration)” value was determined as 5 µM. In addition, in data set [2], the EC100 is 10 µM, the minimal effective concentration turned out to be 1 µM, the “CC2 (cytotoxic concentration)” value was found to be 20 µM and the “CC1 (cytotoxic concentration)” value was 20 µM.
For `CNC(=O)[C@H](C)NCc1cc(=O)c(O)c(C(O)C(F)(F)F)n1C` (stereo partly drawn) [Apo7033, N-2-{[5-hydroxy-1-methyl-4-oxo-6-(2,2,2-trifluoro-1-hydroxyethyl)-1,4-dihydropyridin-2-yl]methyl}-N-methyl-L-alaninamide], in data set [1], the “CC2 (cytotoxic concentration)” value is more than 640 µM and the “CC1 (cytotoxic concentration)” value turned out to be 40 µM.
For the compound `Cc1cc(=O)c(O)c(C(N2CCN(c3ccccn3)CC2)C(F)(F)F)n1C` (centres unmarked) [Apo7336, 3-hydroxy-1,6-dimethyl-2-(2,2,2-trifluoro-1-(4-(pyridin-2-yl)piperazin-1-yl)ethyl)pyridin-4(1H)-one], in data set [1], the “CC2 (cytotoxic concentration)” value is 80 µM and the “CC1 (cytotoxic concentration)” value amounted to 80 µM. In data set [2], the EC100 turned out to be 10 µM, the minimal effective concentration is 1 µM, the “CC2 (cytotoxic concentration)” value turned out to be 20 µM and the “CC1 (cytotoxic concentration)” value was 10 µM.
Turning to `Cc1c(Cl)c(=O)c(O)c(C(N(C)C)C(F)(F)F)n1C` (centres unmarked) [Apo7059, 3-chloro-6-[1-(dimethylamino)-2,2,2-trifluoroethyl]-5-hydroxy-1,2-dimethylpyridin-4(1H)-one], in data set [1], the “CC2 (cytotoxic concentration)” value amounted to 640 µM and the “CC1 (cytotoxic concentration)” value stood at 40 µM. Further, in data set [2], the EC100 worked out at 10 µM, the minimal effective concentration worked out at 1 µM, the “CC2 (cytotoxic concentration)” value was 40 µM and the “CC1 (cytotoxic concentration)” value amounted to 10 µM.
Take `CN(C)Cc1cc(=O)c(O)c(C(O)C(F)(F)F)n1C` (centres unmarked) [Apo7022, 6-[(dimethylamino)methyl]-3-hydroxy-1-methyl-2-(2,2,2-trifluoro-1-hydroxyethyl)pyridin-4(1H)-one]: in data set [1], the “CC2 (cytotoxic concentration)” value was found to be 320 µM and the “CC1 (cytotoxic concentration)” value was 40 µM. Also, in data set [2], the EC100 came out at 20 µM, the minimal effective concentration came out at 0.1 µM, the “CC2 (cytotoxic concentration)” value was 40 µM and the “CC1 (cytotoxic concentration)” value was found to be 10 µM.
With `Cn1ccc(=O)c(O)c1C(C(F)F)N1CCN(c2ccccn2)CC1` (centres unmarked) [Apo7316, 2-(2,2-difluoro-1-(4-(pyridin-2-yl)piperazin-1-yl)ethyl)-3-hydroxy-1-methylpyridin-4(1H)-one], in data set [1], the “CC2 (cytotoxic concentration)” value was 320 µM and the “CC1 (cytotoxic concentration)” value was found to be 320 µM. Also, in data set [2], the EC100 is 10 µM, the minimal effective concentration was determined as 1 µM, the “CC2 (cytotoxic concentration)” value was determined as 20 µM and the “CC1 (cytotoxic concentration)” value stood at 10 µM.
Turning to `Cn1cc(Cl)c(=O)c(O)c1C(N1CCCCC1)C(F)(F)F` (centres unmarked) [Apo7061, 5-chloro-3-hydroxy-1-methyl-2-[2,2,2-trifluoro-1-(piperidin-1-yl)ethyl]pyridin-4(1H)-one], in data set [1], the “CC2 (cytotoxic concentration)” value turned out to be 10 µM and the “CC1 (cytotoxic concentration)” value is 10 µM. Further, in data set [2], the EC100 is 10 µM, the minimal effective concentration is 1 µM, the “CC2 (cytotoxic concentration)” value came out at 20 µM and the “CC1 (cytotoxic concentration)” value amounted to 40 µM.
`Cc1cc(=O)c(O)cn1CC(F)(F)F` [Apo6994, 5-hydroxy-2-methyl-1-(2,2,2-trifluoroethyl)pyridin-4(1H)-one]: in data set [1], the “CC2 (cytotoxic concentration)” value was determined as 640 µM and the “CC1 (cytotoxic concentration)” value is 160 µM. Also, in data set [2], the EC100 came to 10 µM, the minimal effective concentration turned out to be 1 µM, the “CC2 (cytotoxic concentration)” value is more than 80 µM and the “CC1 (cytotoxic concentration)” value was more than 80 µM.
Regarding `Cc1cc(=O)c(O)c(C(N2CCOCC2)C(F)(F)F)n1C` (centres unmarked) [Apo7333, 3-hydroxy-1,6-dimethyl-2-(2,2,2-trifluoro-1-morpholinoethyl)pyridin-4(1H)-one], in data set [1], the “CC2 (cytotoxic concentration)” value was determined as 320 µM and the “CC1 (cytotoxic concentration)” value stood at 320 µM. Besides, in data set [2], the EC100 was 10 µM, the minimal effective concentration came to 1 µM, the “CC2 (cytotoxic concentration)” value was 40 µM and the “CC1 (cytotoxic concentration)” value turned out to be 20 µM.
Regarding `Cc1c(Cl)c(=O)c(O)c(C(O)C(F)(F)F)n1C` (centres unmarked) [Apo7038, 3-chloro-5-hydroxy-1,2-dimethyl-6-(2,2,2-trifluoro-1-hydroxyethyl)pyridin-4(1H)-one], in data set [1], the “CC2 (cytotoxic concentration)” value is more than 640 µM and the “CC1 (cytotoxic concentration)” value worked out at 40 µM.
Take `Cc1cc(=O)c(O)c(C(N2CCN(c3ccccc3)CC2)C(F)(F)F)n1C` (centres unmarked) [Apo7335, 3-hydroxy-1,6-dimethyl-2-(2,2,2-trifluoro-1-(4-phenylpiperazin-1-yl)ethyl)pyridin-4(1H)-one]: in data set [1], the “CC2 (cytotoxic concentration)” value is 80 µM and the “CC1 (cytotoxic concentration)” value came out at 80 µM. In data set [2], the EC100 was determined as 10 µM, the minimal effective concentration worked out at 1 µM, the “CC2 (cytotoxic concentration)” value worked out at 20 µM and the “CC1 (cytotoxic concentration)” value was found to be 20 µM.
Turning to `C=CCNC(c1c(O)c(=O)ccn1C)C(F)(F)F` (centres unmarked) [Apo7075, 3-hydroxy-1-methyl-2-[2,2,2-trifluoro-1-(prop-2-en-1-ylamino)ethyl]pyridin-4(1H)-one], in data set [1], the “CC2 (cytotoxic concentration)” value was more than 640 µM and the “CC1 (cytotoxic concentration)” value came out at 20 µM. In addition, in data set [2], the EC100 stood at 10 µM, the minimal effective concentration worked out at 0.1 µM, the “CC2 (cytotoxic concentration)” value worked out at 20 µM and the “CC1 (cytotoxic concentration)” value turned out to be 10 µM.
As for `C[C@H](NCc1cc(=O)c(O)c(C(O)C(F)(F)F)n1C)C(=O)O` (stereo partly drawn) [Apo7032, N-{[5-hydroxy-1-methyl-4-oxo-6-(2,2,2-trifluoro-1-hydroxyethyl)-1,4-dihydropyridin-2-yl]methyl}-L-alanine], in data set [1], the “CC2 (cytotoxic concentration)” value is more than 640 µM and the “CC1 (cytotoxic concentration)” value was 10 µM. In data set [2], the EC100 was determined as 10 µM, the minimal effective concentration is 0.1 µM, the “CC2 (cytotoxic concentration)” value turned out to be 40 µM and the “CC1 (cytotoxic concentration)” value was determined as 80 µM.
With `CNC(=O)[C@@H](C)NC(c1c(O)c(=O)ccn1C)C(F)(F)F` (stereo partly drawn) [Apo6998, N-methyl-N2-[2,2,2-trifluoro-1-(3-hydroxy-1-methyl-4-oxo-1,4-dihydropyridin-2-yl)ethyl]-D-alaninamide], in data set [1], the “CC2 (cytotoxic concentration)” value was 100 µM and the “CC1 (cytotoxic concentration)” value came out at 20 µM.
On to `Cc1c(O)c(=O)c(C(N2CCN(C)CC2)C(F)(F)F)cn1C.Cl` (centres unmarked) [Apo7063, 3-Hydroxy-1,2-dimethyl-5-[2,2,2-trifluoro-1-(4-methylpiperazin-1-yl)ethyl]pyridin-4(1H)-one hydrochloride], for which, in data set [1], the “CC2 (cytotoxic concentration)” value was more than 640 µM and the “CC1 (cytotoxic concentration)” value worked out at 320 µM.
